Test results taken from patent US6051206A, “Radiolabeled somatostatin-derived peptides for imaging and therapeutic uses” (Diatide, Inc, priority 1996, dated 2000).
Like-named read-outs stand apart in the source and are kept apart here. Bridge positions count the residues as written; N and C are the ends. Square brackets hold non-standard residues; d marks the D form. Peptide text beside a SMILES is read from it. * marks the point of attachment. X10 = NCCCC[C@H](NC(=O)[C@@H](N)CCCCNC(=O)C*)C(=O)N[C@@H](CS)C(N)=O; X2 = N=C(N)NCCC[C@H](NC(=O)[C@H](CS)NC(=O)CNC(=O)CNC(=O)C*)C(N)=O; X1 = NCCCC[C@H](NC(=O)[C@H](CS)NC(=O)CNC(=O)CNC(=O)C*)C(N)=O; NMeF = CN[C@@H](Cc1ccccc1)C(=O)O; hCys = N[C@@H](CCS)C(=O)O; Acm = CC(=O)NC*

Legend:
[1] = system: Somatostatin Receptor (SSTR)-expressing CA20948 rat pancreatic tumors; test: Localization and in vivo biodistribution/imaging of Tc-99m labeled peptides in CA20948 tumor-bearing Lewis rats; conditions: 90-minute biodistribution; for T/B (tumor/blood ratio) / T/M / % ID/g Tumor: 99mTc-labeled peptide, i.v.; for % ID/g Tumor: CA20948 tumor-bearing Lewis rats
Experimental: (§1) CA20948 rat pancreatic tumor cells, thawed from frozen harvested tumor brei, were implanted intramuscularly in a suspension of 0.05 to 0.1 mL/animal, into the right hind thigh of 6 week old Lewis rats. The tumors were allowed to grow to approximately 0.5 to 2 g, harvested, and tumor brei was used to implant a second, naive set of Lewis rats. Passaging in this fashion was repeated to generate successive generations of tumor-bearing animals. The tumor-bearing animals used for the in vivo studies were usually from the third to fifth passage and carried 0.2 to 2 g tumors.
(§2) For studies of the specificity of radiotracer localization in the tumors, selected animals were given an subcutaneous SSTR-blocking dose (4 mg/kg) of octreotide 30 minutes prior to injection of the radiotracer.
(§3) Third- to fifth-passage CA20948 tumor-bearing Lewis rats were restrained and injected intravenously via the dorsal tail vein with a dose of 0.15-0.20 mCi ^99m Tc-labeled peptide corresponding to 3 to 8 μg peptide in 0.2 to 0.4 mL.
(§4) At selected times, the animals were sacrificed by cervical dislocation and selected necropsy was performed. Harvested tissue samples were weighed and counted along with an aliquot of the injected dose in a gamma well-counter.

SSTR-expressing tumors = test: Clinical trial: scintigraphic imaging of human patients bearing SSTR-expressing tumors with Tc-99m labeled P587; type: in vivo; conditions: i.v., within 30 minutes of injection
Excerpt: In a clinical trial, scintigraphic imaging of human patients bearing SSTR-expressing tumors was achieved using the Tc-99m labeled P587 reagent.
A total of 10 patients, four females and six males ranging in age from 27 to 69 years, had been previously diagnosed with growth hormone-secreting pituitary adenoma (4 patients), melanoma (1 subject), medullary thyroid cancer (1 subject), small cell lung carcinoma (SCLC; 1 patient), non-Hodgkin's lymphoma (1 patient) or gastric carcinoid (1 patient). Each of these patients were administered Tc-99m labeled P587 at a dose of 10-22 mCi per 0.2-0.5 mg by intravenous injection. Scintigraphic imaging was them performed as described herein on each patient for 4 hours post-injection.
Gamma camera imaging is started simultaneously with injection. Anterior images were acquired as a dynamic study (10 sec image acquisitions) over the first 10 min, and then as static images at 1, 2, 3 and 4 h post-injection. Anterior images were acquired for 500,000 counts or 20 min (whichever is shorter), at approximately 10-20 min, and at approximately 1, 2, 3 and 4 h post-injection.

somatostatin receptor = target: T1, somatostatin receptor (Rattus norvegicus, UniProt P30680); test: Inhibition of binding of {125I-Tyr11}somatostatin-14 to AR42J rat pancreatic tumor cell membranes; conditions: uncomplexed peptide, {125I-Tyr11}somatostatin-14 0.5 nM
T1 construct: endogenous in cells; host or cells: AR42J rat pancreatic tumor cell line (membrane preparation)
T1 sequence (P30680 whole entry): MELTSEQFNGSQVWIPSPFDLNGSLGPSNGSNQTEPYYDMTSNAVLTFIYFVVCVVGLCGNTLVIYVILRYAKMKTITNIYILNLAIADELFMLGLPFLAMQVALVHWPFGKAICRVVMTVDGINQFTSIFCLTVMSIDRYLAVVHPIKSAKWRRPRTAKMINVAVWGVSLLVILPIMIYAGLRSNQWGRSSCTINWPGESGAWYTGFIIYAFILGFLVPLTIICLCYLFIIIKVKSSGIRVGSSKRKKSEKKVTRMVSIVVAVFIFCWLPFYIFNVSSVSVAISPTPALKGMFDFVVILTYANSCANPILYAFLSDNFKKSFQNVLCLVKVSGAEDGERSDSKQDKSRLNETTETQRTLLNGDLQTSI
Experimental: The rat pancreatic tumor cell line AR42J which expresses the somatostatin receptor was cultured in Dulbecco's minimal essential media (DMEM) supplemented with 10% fetal bovine serum (FBS) and 8 mM glutamine in a humdified 5% CO2 atmosphere at 37° C. in T-flasks. Harvested cells were homogenized in cold 50 mM Tris-HCl buffer (pH 7.4) and the homogenate then centrifuged at 39,000 g for 10 min at 4° C. Pellets were washed once with buffer and then resuspended in an ice-cold solution of 10 mM Tris-HCl (pH 7.4). Equal aliquots of this cell membrane preparation were incubated with {^125 I-Tyr^11 }somatostatin-14 (at a final concentration of 0.5 nM and 750,000 cpm/mL, at a specific activity of 2000 Ci/mmol, Amersham, Arlington Heights, Ill.) and peptide or peptide-rheniumcomplex at a final concentration of from 10^-11 M to 10^-6 M in a solution of 50 mM HEPES (pH 7.4) containing 1 % bovine serum albumin (BSA), 5 mM MgCl2, Trasylol (200,000 International Units), bacitracin (0.02 mg/mL) and phenylmethylsulfonylfluoride (0.02 mg/mL) for 25min at 30° C. Using a filtration manifold, this mixture was filtered through a polyethyleneimine-washed GC/F filter (Whatman, Maidstone, England), and the residue remaining on the filter washed thrice with 5 mL cold HEPES buffer. The filter and a sample of the filter washings were then counted in a gamma counter. To assess non-specific binding, the assay was performed in the presence of unlabeled somatostatin-14 at 200 nM. Data analysis including Hill plots of the data provided inhibition constants (see Bylund & Yamamura, "Methods of receptor binding", in Methods in Neurotransmitter Receptor Analysis, Yamamura et al., eds., Raven Press: New York, 1990).

[2] = system: Somatostatin Receptor (SSTR)-expressing CA20948 rat pancreatic tumors; conditions: in vivo, iv
Experimental: as §1, §2, §3, §4

Ki (somatostatin receptor) [nM] | T/B (tumor/blood ratio) [2] | T/M [2] | Molecule | further results
– | – | – | CC(C)[C@@H]1NC(=O)[C@H](CCCCN)NC(=O)[C@@H](Cc2c[nH]c3ccccc23)NC(=O)[C@H](Cc2ccc(O)cc2)NC(=O)[C@H](Cc2ccccc2)N(C)C(=O)[C@H](CCSCC(=O)NCC(=O)NCC(=O)N[C@@H](CS)C(=O)N[C@@H](CCCCN)C(N)=O)NC1=O (99mTc complex, metal not drawn) [Peptide P587, cyclo(N-methyl)FYWD KV.Hcy.(CH2 CO.GGCK.amide)] (cyclo([NMeF]Y[dW]KV[hCys](X1))) | tumor uptake and tumor/blood ratios (in words) [1]: very high; T/B (tumor/blood ratio) [1]: 6.0; T/M [1]: 33; % ID/g Tumor [1]: 3.4 % ID/g; injected dose remaining in the circulation (SSTR-expressing tumors): less than 10%
– | – | – | CC(C)[C@@H]1NC(=O)[C@H](CCCCN)NC(=O)[C@@H](Cc2c[nH]c3ccccc23)NC(=O)[C@H](Cc2ccc(O)cc2)NC(=O)[C@H](Cc2ccccc2)N(C)C(=O)[C@H](CCSCC(=O)NCC(=O)NCC(=O)N[C@@H](CS)C(=O)N[C@@H](CCCNC(=N)N)C(N)=O)NC1=O (99mTc complex, metal not drawn) [Peptide P617, cyclo(N-methyl)FYWD KV.Hcy.(CH2 CO.GGCR.amide)] (cyclo([NMeF]Y[dW]KV[hCys](X2))) | tumor uptake and tumor/blood ratios (in words) [1]: very high; T/B (tumor/blood ratio) [1]: 9.4; T/M [1]: 36; % ID/g Tumor [1]: 6.7 % ID/g
7.5 | – | – | CC(=O)NCSC[C@H](NC(=O)CNC(=O)[C@H](CSCNC(C)=O)NC(=O)[C@@H]1CSCC(=O)N[C@@H](Cc2ccccc2)C(=O)N[C@@H](Cc2ccccc2)C(=O)N[C@H](Cc2c[nH]c3ccccc23)C(=O)N[C@@H](CCCCN)C(=O)N[C@@H]([C@@H](C)O)C(=O)N[C@@H](Cc2ccccc2)C(=O)N1)C(N)=O [CH2 CO.FFWD KTFCCAcm GCAcm.amide] ({CH2CO}-FF[dW]KTFCC(Acm)GC(Acm)-NH2; thioether N-7) | –
9.4 | – | – | C[C@@H](O)[C@@H]1NC(=O)[C@H](CCCCN)NC(=O)[C@@H](Cc2c[nH]c3ccccc23)NC(=O)[C@H](Cc2ccccc2)NC(=O)[C@H](Cc2ccccc2)NC(=O)CSC[C@@H](C(=O)NCC(=O)NCC(=O)N[C@@H](CS)C(N)=O)NC(=O)[C@H](Cc2ccccc2)NC1=O [CH2 CO.FFWD KTFCGGC.amide] ({CH2CO}-FF[dW]KTFCGGC-NH2; thioether N-7) | –
2.2 | – | – | CC(C)[C@@H]1NC(=O)[C@H](CCCCN)NC(=O)[C@@H](Cc2c[nH]c3ccccc23)NC(=O)[C@H](Cc2ccc(O)cc2)NC(=O)[C@H](Cc2ccccc2)N(C)C(=O)[C@H](CCSCC(=O)NCCCC[C@H](N)C(=O)N[C@@H](CCCCN)C(=O)N[C@@H](CS)C(N)=O)NC1=O [cyclo.(N-Me)FYWD KV.Hcy(CH2 CO.(ε-K)KC.amide)] (cyclo([NMeF]Y[dW]KV[hCys](X10))) | –
– | 0.91 | 7.4 | KKKK.NalD.Cpa.YWD KTFT(ε-K)GCDDDD.amide [Peptide P550] | –
– | 13 | 49 | cyclo.(N--CH3)FYWD KV.Hcy(CH2 CO.(β-Dap)KCK.amide) [Peptide P829] | –
– | 13 | 37 | cyclo.(N--CH3)FYWD KV.Hcy(CH2 CO.(β-Dap)KCR.amide) [Peptide P832] | –
– | 0.85 | 4.6 | cyclo.(N-Me)FYWD KV.Hcy(CH2 CO.(ε-K)KC.amide) [Peptide P625] | –
